# Results as given in patent US8119657B2, “Enantiomeric compositions of 2-amino-1-(2-isopropylpyrazolo[1,5-α]pyridin-3-yl)propan-1-one and related methods” (MediciNova, Inc., priority 2009, dated 2012).
# Legend:
# Format in all cases: in vivo
# [1] = Rat pharmacokinetics of the enantiomers after oral dosing of racemic AV1013; settings: for Cmax: po
# Experimental: Three male Sprague-Dawley rats were dosed orally via gavage with 25 mg/kg racemic AV1013 dissolved in water. Serial blood samples were collected from the tail vein at 5, 15, and 30 min, 1, 3, and 6 hours post dosing. Samples were processed for plasma via centrifugation and plasma samples were stored frozen prior to analysis.
# (§1) A sensitive and specific chiral HPLC/MS/MS bioanalytical method for the detection of (S)-AV1013 and (R)-AV1013 enantiomers in rat and dog plasma was utilized. AV1013 enantiomers and the internal standard (AV1040, an analog of AV1013) were isolated from plasma by protein precipitation induced by acetonitrile. After centrifugation to sediment the proteins, the supernatant fractions were analyzed by high performance liquid chromatography (LC) in conjunction with a triple quadrupole mass spectrometer that used electrospray ionization in tandem with positive ionization (MS/MS) according to the conditions below. The LLOQ (lower level of quantitation) was typically <3 ng/mL.
# (§2) Analysis of pharmacokinetic parameters was performed for each enantiomer via LC/MS bioanalytics and WinNonlin™ analysis (version 4.0.1; Pharsight Corp., Mountain View, Calif.), commercial software designed for the analysis of PK data. The PK modeling was based on a non-compartmental model with gradual input into the central compartment. Computation of the area under the curve (AUC) was based on the sum of trapezoidal areas for the plotted plasma concentration-time data. AUC and associated parameters were estimated by log-linear regression analysis of the terminal phase.
# [2] = Dog pharmacokinetics of the enantiomers after oral dosing of racemic AV1013; settings: for Cmax: po
# Experimental: Three male beagle dogs were dosed orally with 10 mg/kg racemic AV1013 via gavage. AV1013 was dissolved in water at 5 mg/ml and dosed via gavage at a volume of 2 ml/kg. Blood samples were collected via the jugular vein at 5, 15 and 30 minutes, 1, 2, 4, 6, 8, and 24 hours post dosing.
# as §1, §2
# [3] = test system: rat chronic constriction injury model of neuropathic pain; assay: Rat chronic constriction injury model of neuropathic pain (von Frey mechanical allodynia); settings: rat CCI, oral 25 mg/kg, 2 hours post-dosing, 25 mg/kg
# Excerpt: The (S)- and the (R)-enantiomer of AV1013 were each evaluated in a rat chronic constriction injury model of neuropathic pain (see, Ledeboer et. al., Neuron Glia Biology, (2006), p 279-291), to determine whether differences in their activity could be observed.
# To induce allodynia, male Sprague-Dawley rats underwent chronic constriction injury (CCI) to the sciatic nerve as described by Bennett and Xie, Pain 1988; 33(1):87-107. The plantar surface of the hind paws was stimulated with von Frey filaments (Stoelting) to induce a withdrawal response by blinded personnel. The bending force of fiber required to induce a 50% withdrawal response was calculated following CCI surgery (pre-dosing baseline).
# Allodynic rats (N=5-6), received an oral administration of (S)-AV1013 (25 mg/kg), AV1013-R (100 mg/kg) or vehicle. Two hours post-dosing, 50% paw withdrawal threshold was determined by blinded testers using von Frey filaments. The 50% withdrawal threshold prior to CCI surgery, pre-dosing (10 days post-surgery), and 2 hours post-dosing are plotted in FIG. 3.
smiles,measurement,setting,value
"CC(C)c1nn2ccccc2c1C(=O)[C@H](C)N [(S)-AV1013, (S)-2-amino-1-(2-isopropylpyrazolo[1,5-a]pyridin-3-yl)propan-1-one]",AUC(0-t),"[1]; male, Sprague-Dawley, oral 25 mg/kg racemic AV1013, plasma",5.95 µg·h/mL
same,AUC,"[1]; male, Sprague-Dawley, plasma, 25 mg/kg, oral dosing of racemate, rounded values, read-out: calculated area under the curves (AUC)",6 µg·h/mL
same,Cmax,"[1]; male, Sprague-Dawley, plasma, 25 mg/kg, oral 25 mg/kg racemic AV1013, plasma, read-out: Cmax",1.26 µg/mL
same,Cmax,"[1]; male, Sprague-Dawley, plasma, 25 mg/kg, oral dosing of racemate, rounded values, read-out: mean peak plasma levels (Cmax)",1.3 µg/mL
same,AUC of (S) relative to (R) enantiomer,[1]; oral dosing of racemate,around 17 fold
same,Cmax of (S) relative to (R) enantiomer,[1]; oral dosing of racemate,at least 3 fold
same,AUC of (S) relative to (R) enantiomer,"[2]; dog, oral dosing of racemate",> 3 fold
same,Cmax of (S) relative to (R) enantiomer,"[2]; dog, oral dosing of racemate",at least 2 fold
same,Cmax of (S) relative to (R) enantiomer,"[2]; dog, oral dosing of racemate, listed as (S)-enantiomer",> 2 fold
same,Cmax,"[2]; male, beagle, dog, plasma, 10 mg/kg, beagle dog, oral 10 mg/kg racemic AV1013, plasma, read-out: Cmax",2.63 µg/mL
same,Cmax,"[2]; male, beagle, dog, plasma, 10 mg/kg, dog, oral dosing of racemate, rounded values, read-out: mean peak plasma levels (Cmax)",2.6 µg/mL
same,AUC,"[2]; male, beagle, plasma, 10 mg/kg, dog, oral dosing of racemate, rounded values, read-out: calculated area under the curves (AUC)",24.2 µg·h/mL
same,AUC(0-t),"[2]; male, beagle dog, oral 10 mg/kg racemic AV1013, plasma",24.2 µg·h/mL
same,attenuation of mechanical allodynia (50% paw withdrawal threshold),[3],substantially more potent in treating neuropathic pain than the corresponding (R) enantiomer
same,attenuation of mechanical allodynia (50% paw withdrawal threshold),[3]; listed as (S)-enantiomer,more potent in vivo than is the (R)-enantiomer
